Data published in patent EP3156398A1, “AGONISTS OF THE CHEMOKINE RECEPTOR CXCR3” (Friedrich-Alexander-Universität Erlangen-Nürnberg, priority 2015, dated 2017).

What was measured:
CXCR3 = target: T1, CXCR3 (Homo sapiens, UniProt P49682); assay: [35S]GTPγS incorporation assay; type: biochemical; conditions: for CXCR3 Efficacy (%) ± SEM / Emax: % of CXCL11 mediated effect; for CXCR3 Efficacy (%) ± SEM / CXCR3 pEC50 ± SEM / Emax: membrane preparations of HEK293T stably expressing CXCR3; for CXCR3 mediated G protein activation (result in words): [35S]GTPγS incorporation; for CXCR3 pEC50 ± SEM: mean of three experiments in triplicate; for Emax: read-out: CXCR3 Efficacy (%) ± SEM
T1 construct: expressed in transfected cells; host or cells: HEK293 / HEK293T cells, stably transfected; membrane preparations
T1 sequence (P49682 1-368): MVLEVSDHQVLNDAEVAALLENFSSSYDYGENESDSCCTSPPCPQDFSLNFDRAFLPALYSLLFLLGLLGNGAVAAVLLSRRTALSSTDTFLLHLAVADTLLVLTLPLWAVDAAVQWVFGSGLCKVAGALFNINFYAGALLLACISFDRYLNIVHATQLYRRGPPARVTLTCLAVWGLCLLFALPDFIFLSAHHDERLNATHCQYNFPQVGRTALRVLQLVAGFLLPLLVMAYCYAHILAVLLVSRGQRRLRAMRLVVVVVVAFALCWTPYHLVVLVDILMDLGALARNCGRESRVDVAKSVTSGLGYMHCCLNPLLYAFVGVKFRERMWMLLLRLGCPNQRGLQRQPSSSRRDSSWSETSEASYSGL
Procedure: Membrane preparation for allosteric radioligand RAMX3 displacement and [^35S]GTPγS incorporation assays: The human embryonic kidney (HEK) cells stably expressing the human CXCR3 receptor were cultured in 150-mm cell culture plates in DMEM/F-12 supplemented with 10% fetal bovine serum (FBS), 2 mM L-glutamine, 1% penicillin-streptomycin, 300 µgmL^-1 Zeocin and incubated at 37 °C in a humid atmosphere with 5% CO2. At 100% confluency cells were washed with PBS twice, treated with Tris EDTA buffer (10 mM Tris, 0.5 mM EDTA, 5 mM KCl, 140 mM NaCl, pH 7.4), and harvested using a cell scraper. Cells were pelleted at 1100×g for 8 min at 4 °C, resuspended in Tris-EDTA-MgCl2 buffer (50mM Tris, 5 mM EDTA, 1.5 mM CaCl2, 5 mM MgCl2, 5 mM KCl, 120 mM NaCl, pH 7.4) and followed by lysis with an Ultra-Turrax. After centrifugation at 50,000•g, at 4°C for 18 min the membranes were resuspended in the binding buffer (50 mM Tris, 1 mM EDTA, 5 mM MgCl2 and subsequently homogenized with a glass-Teflon homogenizer (20 strokes). The homogenized membranes were shock-frozen in liquid nitrogen and stored at -80°C. The protein concentration was determined with the Lowry method with bovine serum albumin used as a standard.^35
[^35S]GTPγS incorporation assay: The [^35S]GTPγS incorporation assay was performed on membrane preparations of stably transfected HEK293 cells that expressed the CXCR3 receptor. The assay was carried out in 96-well plates at the final volume of 200 µL. The incubation buffer contained 20 mM HEPES, 10 mM MgCl2•6H20,100 mM NaCl and 100 mg/L saponin (pH 7.4). Membranes (30 µgmL^-1 of membrane protein), various concentrations of test compound and CXCL11, and 1 µM GDP were preincubated in the absence of [^35S]GTPγS for 30 min at 37 °C. After the addition of 0.10 nM [^35S]GTPγS membranes were incubated for additional 30 min at 37 °C. Incubation was terminated by filtration through Whatman GF/B filters soaked with ice cold PBS. The filter-bound radioactivity was measured as described above. Three to four experiments per compound were performed with each concentration in triplicate.
The activation of G proteins was explored in terms of CXCR3 mediated [^35S]GTPγS incorporation. In the [^35S]GTPγS incorporation assay the membrane preparations of HEK293T cells stably expressing CXCR3 were used. The activation of G proteins was monitored as the incorporation of [^35S]GTPγS and thus increase in the incorporated radioactivity. The potency and efficacy of the novel compounds was first compared to the reference compound 46/VUF10661. […] Table 1. The ability of the 46/VUF10661 based positive allosteric modulators to activate CXCR3 as measured in the [35S]GTPγS incorporation assay.[a]

CXCR3-PK1 = target: T2, CXCR3-PK1 (Homo sapiens, UniProt P49682); assay: β-arrestin 2 recruitment assay (PathHunter, DiscoveRx), CXCR3-PK1 construct; type: cell-based; conditions: for Emax: % of CXCL11 mediated effect, read-out: CXCR3-PK1 efficacy (%) (converted); for Emax / CXCR3-PK1 pEC50 ± SEM: CXCR3-PK1; for CXCR3-PK1 pEC50 ± SEM: HEK293-T cells, PathHunter, two to three experiments in triplicate
T2 construct: expressed in transfected cells; host or cells: HEK293 cells stably expressing beta-gal enzyme acceptor (PathHunter, DiscoveRx), transiently transfected
T2 sequence (P49682 1-368): T1 sequence (P49682 1-368)
Procedure: (§1) β-arrestin 2 recruitment assay: The measurement of β-arrestin recruitment was performed utilizing the PathHunter assay purchased from DiscoveRx (DiscoveRx, Birmingham, U.K.) according to the manufacturer's protocol. HEK293 cells stably expressing β-gal enzyme acceptor were transiently transfected with the ProLink (PK1) tagged wildtype CXCR3 receptor using the TransIT-293 transfection reagent from Mirus (purchased from MoBiTec, Goettingen, Germany). The assay was carried out in 384-well plates containing 2000 cells in 20 µL. After incubation at 37°C (5% CO2, 95% relative humidity) overnight, various concentrations of test compounds or CXCL11 (prepared in PBS, pH 7.4, containing 0.20% BSA) were added and the incubation continued for 4 h. Detection mix was then added and incubated for further 60 min at room temperature. Chemiluminescence was determined with a microplate reader Clariostar (BMG labtech, Ortenberg, Germany).
(§2) The ability of the novel ligands according to the present invention to induce CXCR3-mediated β-arrestin 2 recruitment was investigated in the assay system PathHunter (DiscoveRx), which detects the recruitment of β-amestin 2 to the activated receptor using β-galactosidase (β-gal) enzyme fragment complementation. The inventors used two different ProLink tags, ProLink1 (PK1) and ProLink2 (PK2), of which PK2 has higher affinity for the enzyme acceptor to detect weak protein-protein interactions. The CXCR3-PK2 construct is readily able to detect the differences in the propensity of CXCL11 and CXCL10 to induce β-arrestin 2 recruitment at CXCR3. […] Table 3. Ability of the 46/VUF10661 based positive allosteric modulators to activate the CXCR3 as measured in the β-arrestin 2 recruitment assay (PathHunter, DiscoveRx).[a]

CXCR3-PK2 = target: T3, CXCR3-PK2 (Homo sapiens, UniProt P49682); assay: β-arrestin 2 recruitment assay (PathHunter, DiscoveRx), CXCR3-PK2 construct; type: cell-based; conditions: for Emax: % of CXCL11 mediated effect, read-out: CXCR3-PK2 efficacy (%) (converted); for Emax / CXCR3-PK2 pEC50 ± SEM: CXCR3-PK2; for CXCR3-PK2 pEC50 ± SEM: HEK293-T cells, PathHunter
T3 construct: expressed in transfected cells
T3 sequence (P49682 1-368): T1 sequence (P49682 1-368)
Procedure: as §1, §2
To investigate the efficacy of identified partial agonists in the assay format, the inventors used the CXCR3-PK2 construct, which is characterized by higher sensitivity to detect β-arrestin 2 recruitment. The compounds which appeared as weak partial agonists under CXCR3-PK1 conditions appeared as strong partial agonists under CXCR3-PK2 conditions with the efficacy increased up to 80% (Table 4). FAUC1036 reached the efficacy of 66%. […] Table 4. Ability of the compound 5 based positive allosteric modulators to activate the CXCR3 as measured in the β-arrestin 2 recruitment assay (PathHunter, DiscoveRx).[a]

activated T-cells = conditions: cited from earlier work

| SMILES | CXCR3 Efficacy (%) ± SEM (CXCR3) | CXCR3 mediated G protein activation (result in words) (CXCR3) | CXCR3 pEC50 ± SEM (CXCR3) | Emax (CXCR3-PK1) | CXCR3-PK1 pEC50 ± SEM (CXCR3-PK1) | Emax (CXCR3-PK2) | CXCR3-PK2 pEC50 ± SEM (CXCR3-PK2) | β-arrestin 2 recruitment, intrinsic agonism (result in words) (CXCR3-PK1) | Emax (CXCR3) | β-arrestin 2 recruitment agonism using PK2 tag (result in words) (CXCR3-PK2) | influence on CXCL11 induced migration in activated T-cells (activated T-cells) |
| --- | --- | --- | --- | --- | --- | --- | --- | --- | --- | --- | --- |
| N[C@@H](CCCCNC(=O)[C@@H]1Cc2ccccc2CN1C(=O)CCC(=O)c1ccccc1)C(=O)NCC(c1ccccc1)c1ccccc1.O=C(O)C(F)(F)F [Compound 25, (S)-1-((2,2-diphenylethyl)amino)-1-oxo-6-((S)-2-(4-oxo-4-phenylbutanoyl)-1,2,3,4-tetrahydroisoquinoline-3-carboxamido)hexan-2-aminium 2,2,2-trifluoroacetate] | No effect | failed to induce CXCR3 mediated G protein activation | No effect | 17% | 6.80±0.21 | 27% | 6.51±0.34 |  |  |  |  |
| N[C@@H](CCCCNC(=O)[C@@H]1Cc2ccccc2CN1C(=O)CCCC(=O)c1ccccc1)C(=O)NCC(c1ccccc1)c1ccccc1.O=C(O)C(F)(F)F [Compound 26, (S)-1-((2,2-diphenylethyl)amino)-1-oxo-6-((S)-2-(5-oxo-5-phenylpentanoyl)-1,2,3,4-tetrahydroisoquinoline-3-carboxamido)hexan-2-aminium 2,2,2-trifluoroacetate] | No effect |  | No effect | 20% | 6.73±0.22 | 91% | 6.90±0.21 |  |  |  |  |
| CC(C)(C)OC(=O)N[C@@H](CCCCNC(=O)[C@@H]1Cc2ccccc2CN1C(=O)CCC(=O)O)C(=O)NCC(c1ccccc1)c1ccccc1 [Compound 27, 4-((S)-3-(((S)-5-((tert-butoxycarbonyl)amino)-6-((2,2-diphenylethyl)amino)-6-oxohexyl)carbamoyl)-3,4-dihydroisoquinolin-2(1H)-yl)-4-oxobutanoic acid] | No effect |  | No effect |  | No effect |  | No effect | no agonistic effect |  |  |  |
| N[C@@H](CCCCNC(=O)[C@@H]1Cc2ccccc2CN1)C(=O)NCC(c1ccccc1)c1ccccc1.O=C(O)C(F)(F)F.O=C(O)C(F)(F)F [Compound 28, (S)-3-(((S)-5-ammonio-6-((2,2-diphenylethyl)amino)-6-oxohexyl)carbamoyl)-1,2,3,4-tetrahydroisoquinolin-2-ium 2,2,2-trifluoroacetate] |  |  | 5.65±0.23 | 14% | 6.80±0.45 | 85% | 6.55±0.26 |  | 40 ± 7% |  |  |
| CC(C)(C)OC(=O)N[C@H](CCCCNC(=O)[C@@H]1Cc2ccccc2CN1C(=O)CCC(=O)c1ccccc1)C(=O)NCC(c1ccccc1)c1ccccc1 [Compound 34, Tert-butyl ((R)-1-((2,2-diphenylethyl)amino)-1-oxo-6-((S)-2-(4-oxo-4-phenylbutanoyl)-1,2,3,4-tetrahydroisoquinoline-3-carboxamido)hexan-2-yl)carbamate] | No effect | failed to induce CXCR3 mediated G protein activation | No effect | 16% | 6.95±0.50 | 88% | 6.86±0.19 |  |  | reached the levels of full agonism |  |
| N[C@H](CCCCNC(=O)[C@@H]1Cc2ccccc2CN1C(=O)CCC(=O)c1ccccc1)C(=O)NCC(c1ccccc1)c1ccccc1.O=C(O)C(F)(F)F [Compound 35, (R)-1-((2,2-diphenylethyl)amino)-1-oxo-6-((S)-2-(4-oxo-4-phenylbutanoyl)-1,2,3,4-tetrahydroisoquinoline-3-carboxamido)hexan-2-aminium 2,2,2-trifluoroacetate] |  |  | 8.01±0.31 | 28% | 7.16±0.33 | 79% | 6.52±0.43 |  | 25 ± 4% |  |  |
| CC(C)(C)OC(=O)NCCCC[C@@H](NC(=O)[C@@H]1Cc2ccccc2CN1C(=O)CCC(=O)c1ccccc1)C(=O)NCC(c1ccccc1)c1ccccc1 [Compound 45, Tert-butyl ((R)-6-((2,2-diphenylethyl)amino)-6-oxo-5-((S)-2-(4-oxo-4-phenylbutanoyl)-1,2,3,4-tetrahydroisoquinoline-3-carboxamido)hexyl)carbamate] |  |  | 5.97±0.34 | ~36% | 6.63±0.17 | 30% | 7.23±0.69 |  | 33 ± 7% |  |  |
| NCCCC[C@@H](NC(=O)[C@@H]1Cc2ccccc2CN1C(=O)CCC(=O)c1ccccc1)C(=O)NCC(c1ccccc1)c1ccccc1.O=C(O)C(F)(F)F [Compound 47, (R)-6-((2,2-diphenylethyl)amino)-6-oxo-5-((S)-2-(4-oxo-4-phenylbutanoyl)-1,2,3,4-tetrahydroisoquinoline-3-carboxamido)hexan-1-aminium 2,2,2-trifluoroacetate] |  |  | 5.94±0.09 | 108% | 5.96±0.08 | 198% | 6.12±0.11 |  | 85 ± 5% |  |  |
| NC(N)=NCCC[C@H](NC(=O)[C@@H]1Cc2ccccc2CN1C(=O)CCC(=O)c1ccccc1)C(=O)NCC1CCCCC1 [PS372424] |  |  |  |  |  |  |  |  |  |  | found to antagonize CXCL11 induced migration |
